Assay results reported in US4581354A, “3-arylcarbonyl- and 3-cycloalkylcarbonyl-1-aminoalkyl-1H-indoles, compositions and use” (Sterling Drug Inc., priority 1985, dated 1986).
Where a name gives a salt, the structure may show the parent alone. Read-outs that look alike come from different tables or passages of the source.

Experiments:
[1] = tested on: acetylcholine-induced abdominal constriction; experiment: animal or person; type: in vivo, mice; settings: Mus musculus; for ED50: read-out: Ach ED50
bradykinin = experiment: anti-bradykinin test (BRDK); type: in vivo; settings: for inhibition in vivo at 200 mg/kg: 200 mg./kg. oral; for ED50: po
Excerpt: (§1) The test procedures used to determine the analgesic activities of the compounds have been described in detail in the prior art and are as follows: The acetylcholine-induced abdominal constriction test, which is a primary analgesic screening test designed to measure the ability of a test agent to suppress acetylcholine-induced abdominal constriction in mice, described by Collier et al., Brit. J. Pharmacol. Chemotherap. 32, 295 (1968); a modification of the anti-bradykinin test, which is also a primary analgesic screening procedure, described by Berkowitz et al., J. Pharmacol. Exptl. Therap. 177, 500-508 (1971), Blane et al., J. Pharm. Pharmacol. 19, 367-373 (1967), Botha et al., Eur. J. Pharmacol. 6, 312-321 (1969) and Deffenu et al., J. Pharm. Pharmacol. 18, 135 (1966); and the rat paw flexion test, described by Kuzuna et al., Chem. Pharm. Bull., 23, 1184-1191 (1975), Winter et al., J. Pharm. Exptl. Therap., 211, 678-685 (1979) and Capetola et al., J. Pharm. Exptl. Therap. 214, 16-23 (1980).
(§2) Unless noted otherwise, all data were obtained on oral administration and are expressed either as the ED50 or as the percent inhibition at a given dose level (thus 30/100 or 30% inhibition at […].)
(§3) In some instances, the compounds were retested two or more times, and ED50 values were calculated for each series of repeat tests. In such instances, each of the ED50 values so-obtained is given in a series of values, thus 6, 28, 30, 43 in the case of the species of Example 1AW in the acetylcholine-induced abdominal constriction test.

rat paw flexion = rat paw flexion test (P.F.); type: in vivo; settings: for inhibition in vivo at 30 mg/kg: 30 mg./kg. oral; for inhibition in vivo at 100 mg/kg: 100 mg./kg. oral; for ED50: oral; for inhibition in vivo at 10 mg/kg: 10 mg./kg. oral; for inhibition in vivo at 300 mg/kg: 300 mg./kg. oral
Excerpt: as §1, §2, §3

[2] = read-out: BRDK percent inhibition
[3] = po, read-out: P.F. percent inhibition

| SMILES | ED50 ([1]; po) | inhibition in vivo at 30 mg/kg (rat paw flexion; [3]) | inhibition in vivo at 100 mg/kg (rat paw flexion; [3]) | ED50 (rat paw flexion) | ED50 (bradykinin) | ED50 ([1]; iv) | further results |
| --- | --- | --- | --- | --- | --- | --- | --- |
| CCc1ccc(C(=O)c2c(C)n(CCN3CCOCC3)c3ccccc23)cc1 [Example 1AC] | 30 mg/kg | 43% | 75% |  |  |  | inhibition in vivo at 1.77 mg/kg ([1]; iv, 1.77 mg./kg. i.v., read-out: Ach percent inhibition): 10%; inhibition in vivo at 2.2 mg/kg ([1]; iv, 2.2 mg./kg. i.v., read-out: Ach percent inhibition): 10%; inhibition in vivo at 3 mg/kg ([1]; iv, 3 mg./kg. i.v., read-out: Ach percent inhibition): 80%; inhibition in vivo at 10 mg/kg ([1]; iv, 10 mg./kg. i.v., read-out: Ach percent inhibition): 100%; inhibition in vivo at 200 mg/kg (bradykinin; [2]): 0%; inhibition in vivo at 50 mg/kg (rat paw flexion; po, 50 mg./kg. oral, read-out: P.F. percent inhibition): 57% |
| Cc1ccc(C(=O)c2c(C)n(CCN3CCOCC3)c3ccccc23)cc1 [Example 1AE] | 29 mg/kg |  |  | 66.2 mg/kg |  |  | inhibition in vivo at 300 mg/kg (bradykinin; 300 mg./kg. oral, read-out: BRDK percent inhibition): 20% |
| Cc1c(C(=O)c2ccccc2)c2ccccc2n1CCN1CCOCC1 [Example 1AO] | 28 mg/kg |  | 75% |  | 111 mg/kg |  |  |
| Cc1c(C(=O)c2ccc(Cl)cc2)c2ccccc2n1CCN1CCOCC1 [Example 1AQ] |  | 12% | 12% |  |  | 17 mg/kg | inhibition in vivo at 300 mg/kg ([1]; po, 300 mg./kg. oral, read-out: Ach percent inhibition): 53%; inhibition in vivo at 10 mg/kg (rat paw flexion; [3]): 0% |
| Cc1c(C(=O)c2ccccc2)c2ccccc2n1C(C)CN1CCOCC1 (stereo not drawn) [Example 1AW] |  |  |  | 26 mg/kg | 229 mg/kg |  |  |
| CC(CN1CCOCC1)n1cc(C(=O)c2ccccc2)c2ccccc21 (stereo not drawn) [Example 1AY] |  | 0% | 0% |  | 141 mg/kg | 8.5 mg/kg | inhibition in vivo at 300 mg/kg (rat paw flexion; [3]): 20% |
| CSc1ccc(C(=O)c2c(C)n(CCN3CCOCC3)c3ccccc23)cc1 [Example 1D] |  |  |  | 64 mg/kg |  | 5.1 mg/kg | ED50 ([1]; sc): 49 mg/kg; inhibition in vivo at 100 mg/kg (bradykinin; 100 mg./kg. oral, read-out: BRDK percent inhibition): 0% |
| Cc1c(C(=O)c2ccc([S+](C)[O-])cc2)c2ccccc2n1CCN1CCOCC1 (stereo not drawn) [Example 1F] | 20 mg/kg |  | 88% |  |  | 13 mg/kg | inhibition in vivo at 200 mg/kg (bradykinin; [2]): 0% |
| COc1ccc(C(=O)c2c(C)n(C(C)CN3CCOCC3)c3ccccc23)cc1 (stereo not drawn) [Example 2I] | 28 mg/kg |  | 62% |  | 132 mg/kg | 2.6 mg/kg | ED50 ([1]; sc): 18 mg/kg |
| COc1ccc(C(=O)c2c(C)n(CCN3CCCC(O)C3)c3ccccc23)cc1 (stereo not drawn) [Example 3B, 1-[2-(3-hydroxy-1-piperidinyl)ethyl]-2-methyl-3-(4-methoxybenzoyl)-1H-indole] | 26.5 mg/kg | 50% | 86% |  |  | 3 mg/kg | ED50 ([1]; sc): 10 mg/kg; inhibition in vivo at 300 mg/kg (rat paw flexion; [3]): 86% |
| Cc1c(C(=O)c2ccc(N)cc2)c2ccccc2n1CCN1CCOCC1 [Example 4B, 2-methyl-3-(4-aminobenzoyl)-1-[2-(4-morpholinyl)ethyl]-1H-indole] | 24 mg/kg |  |  | 27.6 mg/kg | 38 mg/kg | 6 mg/kg |  |
| CC(=O)Nc1cccc(C(=O)c2c(C)n(CCN3CCOCC3)c3ccccc23)c1 [Example 5B] | 25 mg/kg | 12% | 12% |  | 61 mg/kg |  | inhibition in vivo at 10 mg/kg (rat paw flexion; [3]): 0% |
| CNc1ccc(C(=O)c2c(C)n(CCN3CCOCC3)c3ccccc23)cc1 [Example 8A, 2-methyl-3-(4-methylaminobenzoyl)-1-[2-(4-morpholinyl)-ethyl]-1H-indole dihydrochloride hemihydrate] | 32 mg/kg | 62% |  |  |  |  |  |
